Literature values as cited in patent US9770413B2, “Amphiphilic dendron-coils, micelles thereof and uses” (THE BOARD OF TRUSTEES OF THE UNIVERSITY OF ILLINOIS, priority 2011, dated 2017).

Molecular target: folate receptors (FR)

- Kd: ~0.1 nM
SMILES: Nc1nc2ncc(CNc3ccc(C(=O)N[C@@H](CCC(=O)O)C(=O)O)cc3)nc2c(=O)[nH]1 [FA, folic acid]
